The values below come from patent US8420851B2, “Selective TR-β 1 agonist” (Cadila Healthcare Limited, priority 2006, dated 2013).

One data set deals with T1, TR-α (Homo sapiens, UniProt P10827).
T1 sequence (P10827 1-410 isoform P10827-2): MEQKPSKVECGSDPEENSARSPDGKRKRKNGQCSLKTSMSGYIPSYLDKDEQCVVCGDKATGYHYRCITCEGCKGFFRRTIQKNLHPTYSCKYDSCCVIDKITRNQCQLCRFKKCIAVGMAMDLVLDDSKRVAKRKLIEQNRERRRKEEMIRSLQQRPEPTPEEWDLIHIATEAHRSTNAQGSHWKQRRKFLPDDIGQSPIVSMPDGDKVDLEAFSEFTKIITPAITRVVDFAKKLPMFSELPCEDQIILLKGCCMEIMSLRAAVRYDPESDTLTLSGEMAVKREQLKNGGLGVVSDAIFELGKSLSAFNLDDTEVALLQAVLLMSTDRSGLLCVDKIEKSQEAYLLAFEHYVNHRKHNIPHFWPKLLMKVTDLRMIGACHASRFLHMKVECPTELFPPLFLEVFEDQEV
Nature of the data set: In vitro TR-α activity (in-house protocol). Type of data set: cell-based. The protocol:
(§1) Invitro TR-α & TR-β activities were determined as per in-house protocols and the results of representative compounds are provided in tables 1 & 2 below as a proof of the efficacies of the novel class of compounds disclosed above.

In another data set the target is T2, TR-β (Homo sapiens, UniProt P10828).
T2 sequence (P10828 1-461): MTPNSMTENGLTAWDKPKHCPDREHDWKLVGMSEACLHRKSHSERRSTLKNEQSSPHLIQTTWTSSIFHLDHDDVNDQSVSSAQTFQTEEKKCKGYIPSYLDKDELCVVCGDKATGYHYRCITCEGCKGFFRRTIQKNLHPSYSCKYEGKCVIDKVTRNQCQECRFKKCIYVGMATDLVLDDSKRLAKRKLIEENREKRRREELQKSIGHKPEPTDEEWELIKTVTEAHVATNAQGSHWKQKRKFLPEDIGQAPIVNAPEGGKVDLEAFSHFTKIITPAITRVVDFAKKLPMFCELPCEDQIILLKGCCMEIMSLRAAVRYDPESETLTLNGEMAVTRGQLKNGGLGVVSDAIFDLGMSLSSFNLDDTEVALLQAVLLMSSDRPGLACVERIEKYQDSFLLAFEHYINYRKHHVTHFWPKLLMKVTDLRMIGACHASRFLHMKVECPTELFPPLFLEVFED
Nature of the data set: In vitro TR-β activity (in-house protocol). The class given is cell-based. The conditions noted are these: for fold induction at 0.01 µM: Conc. 10 nM; for fold induction at 0.01 µM / fold induction at 0.1 µM / fold induction at 1 µM / fold induction at 0.001 µM: read-out: TR-β Fold Induction w.r.t T3(100 nm); for fold induction at 0.1 µM: Conc. 100 nM; for fold induction at 1 µM: Conc. 1000 nM; for fold induction at 0.001 µM: Conc. 1 nM. The protocol: as §1

Turning to `CCOC(=O)N(CC(=O)O)c1cc(Cl)c(Oc2ccc(O)c(C(C)C)c2)c(Cl)c1` [Example 1, {[3,5-Dichloro-4-(4-hydroxy-3-isopropyl-phenoxy)-phenyl]-ethoxycarbonyl-amino}-acetic acid], the values for the EC50 on TR-α and on TR-β were 440 nM and 146 nM, respectively.

Turning to `CCOC(=O)N(CC(=O)O)c1cc(Cl)c(Oc2ccc(O)c(C(C)CC)c2)c(Cl)c1` (stereo not shown) [Example 2, {[4-(3-sec-Butyl-4-hydroxy-phenoxy)-3,5-dichloro-phenyl]-ethoxycarbonyl-amino}-acetic acid], the 50% effective concentration (EC50) (as a rule, the concentration giving half of the maximal effect) on TR-α amounted to 119 nM; at TR-β, 162 nM.

Take `CCOC(=O)N(CC(=O)O)c1cc(Cl)c(Oc2ccc(O)c(Cc3ccccc3)c2)c(Cl)c1` [Example 3, {[4-(3-Benzyl-4-hydroxy-phenoxy)-3,5-dichloro-phenyl]-ethoxycarbonyl-amino}-acetic acid]: the EC50 at TR-α was 274 nM; at TR-β, 89 nM.

As for `CCOC(=O)N(CC(=O)O)c1cc(Cl)c(Oc2ccc(O)c(C(C)(C)C)c2)c(Cl)c1` [Example 13, {[4-(3-tert-Butyl-4-hydroxy-phenoxy)-3,5-dichloro-phenyl]-ethoxycarbonyl-amino}-acetic acid], the “TR-α Fold Induction w.r.t T3(100 nm)” value on TR-α (Conc. 10 nM) is listed as 49.80. Also, the “TR-α Fold Induction w.r.t T3(100 nm)” value on TR-α (Conc. 100 nM) is reported as 96.60. On TR-α (Conc. 1000 nM), the “TR-α Fold Induction w.r.t T3(100 nm)” value is given as 72.90. In addition, at TR-β, the fold induction at 0.01 µM was determined as 44.2, the fold induction at 0.1 µM amounted to 80.6 and the fold induction at 1 µM is 75.

In the case of `CCOC(=O)N(CC(=O)O)c1cc(Cl)c(Oc2ccc(O)c(-c3ccccc3)c2)c(Cl)c1` [Example 14, {[3,5-Dichloro-4-(6-hydroxy-biphenyl-3-yloxy)-phenyl]-ethoxycarbonyl-amino}-acetic acid], the “TR-α Fold Induction w.r.t T3(100 nm)” value at TR-α (Conc. 10 nM) came out at 11.10. Further, the “TR-α Fold Induction w.r.t T3(100 nm)” value at TR-α (Conc. 100 nM) is 36.30. The “TR-α Fold Induction w.r.t T3(100 nm)” value on TR-α (Conc. 1000 nM) is 45.90. Besides, at TR-β, the fold induction at 0.01 µM is 16.4, the fold induction at 0.1 µM came to 58.5 and the fold induction at 1 µM stood at 77.3.

For the molecule `CCOC(=O)N(CC(=O)O)c1cc(Cl)c(Oc2ccc(O)c(C(=O)c3ccc(F)cc3)c2)c(Cl)c1` [Example 15, ({3,5-Dichloro-4-[3-(4-fluoro-benzoyl)-4-hydroxy-phenoxy]-phenyl}-ethoxycarbonyl-amino)-acetic acid], the “TR-α Fold Induction w.r.t T3(100 nm)” value at TR-α (Conc. 10 nM) turned out to be 11.34. Besides, at TR-α (Conc. 100 nM), the “TR-α Fold Induction w.r.t T3(100 nm)” value is recorded as 39.66. Further, the “TR-α Fold Induction w.r.t T3(100 nm)” value at TR-α (Conc. 1000 nM) was 33.74. Further, on TR-β, the fold induction at 0.01 µM was found to be 23.5, the fold induction at 0.1 µM stood at 70.5 and the fold induction at 1 µM was 66.8.

As for `CCOC(=O)N(CC(=O)O)c1cc(Cl)c(Oc2ccc(O)c(C(=O)c3ccc(Cl)s3)c2)c(Cl)c1` [Example 17, ({3,5-Dichloro-4-[3-(5-chloro-thiophene-2-carbonyl)-4-hydroxy-phenoxy]-phenyl}-ethoxycarbonyl-amino)-acetic acid], the “TR-α Fold Induction w.r.t T3(100 nm)” value at TR-α (Conc. 10 nM) is recorded as 21.19. Besides, the “TR-α Fold Induction w.r.t T3(100 nm)” value at TR-α (Conc. 100 nM) amounted to 51.82. The “TR-α Fold Induction w.r.t T3(100 nm)” value at TR-α (Conc. 1000 nM) is on record as 53.12. Besides, at TR-β, the fold induction at 0.01 µM stood at 27.7, the fold induction at 0.1 µM amounted to 72.8 and the fold induction at 1 µM amounted to 77.9.

As for `CCOC(=O)N(CC(=O)O)c1cc(C)c(Oc2ccc(O)c(C(C)CC)c2)c(C)c1` (stereo not shown) [Example 18, {[4-(3-sec-Butyl-4-hydroxy-phenoxy)-3,5-dimethyl-phenyl]-ethoxycarbonyl-amino}-acetic acid], on TR-α (Conc. 1 nM), the “TR-α Fold Induction w.r.t T3(100 nm)” value turned out to be 6.62. Also, on TR-α (Conc. 10 nM), the “TR-α Fold Induction w.r.t T3(100 nm)” value stood at 8.90. In addition, at TR-α (Conc. 100 nM), the “TR-α Fold Induction w.r.t T3(100 nm)” value is on record as 12.97. In addition, on TR-α (Conc. 1000 nM), the “TR-α Fold Induction w.r.t T3(100 nm)” value is 16.87. Also, on TR-β, the fold induction at 0.001 µM is 9.44, the fold induction at 0.01 µM came out at 18.6, the fold induction at 0.1 µM is 23 and the fold induction at 1 µM was 42.6.

Regarding `CCOC(=O)N(CC(=O)O)c1cc(Cl)c(Oc2ccc(O)c(C(=O)c3ccc(Cl)cc3)c2)c(Cl)c1` [Example 20, ({3,5-Dichloro-4-[3-(4-chloro-benzoyl)-4-hydroxy-phenoxy]-phenyl}-ethoxycarbonyl-amino)-acetic acid], the “TR-α Fold Induction w.r.t T3(100 nm)” value at TR-α (Conc. 1 nM) is on record as 10.42. Further, the “TR-α Fold Induction w.r.t T3(100 nm)” value at TR-α (Conc. 10 nM) is listed as 15.74. For the same molecule, on TR-α (Conc. 100 nM), the “TR-α Fold Induction w.r.t T3(100 nm)” value is given as 21.47. The “TR-α Fold Induction w.r.t T3(100 nm)” value at TR-α (Conc. 1000 nM) came to 18.49. Moreover, at TR-β, the fold induction at 0.001 µM is 19.9, the fold induction at 0.01 µM was 40.7, the fold induction at 0.1 µM was 87.7 and the fold induction at 1 µM is 81.2.

As for `CCC(C)c1cc(Oc2c(C)cc(N(CC(=O)O)CC(=O)O)cc2C)ccc1O` (stereo not shown) [Example 21, {[4-(3-sec-Butyl-4-hydroxy-phenoxy)-3,5-dimethyl-phenyl]-carboxymethyl-amino}-acetic acid], the “TR-α Fold Induction w.r.t T3(100 nm)” value at TR-α (Conc. 1 nM) came out at 17.17; at TR-α (Conc. 10 nM) it was 56.81; on TR-α (Conc. 100 nM), 110.66; at TR-α (Conc. 1000 nM) it was 93.53. Moreover, the fold induction at 0.001 µM on TR-β was 33.4. Also, the fold induction at 0.01 µM on TR-β was 153. Besides, at TR-β, the fold induction at 0.1 µM was found to be 202. Moreover, at TR-β, the fold induction at 1 µM is 148.

Take `CCC(C)c1cc(Oc2c(Cl)cc(N(CC(=O)O)C(=O)Oc3ccc(O)cc3)cc2Cl)ccc1O` (stereo not shown) [Example 23, [[4-(3-sec-Butyl-4-hydroxy-phenoxy)-3,5-dichloro-phenyl]-(4-hydroxy-phenoxycarbonyl)-amino]-acetic acid]: the results for the EC50 at TR-α and on TR-β were 9.26 nM and 2.6 nM, respectively.

In the case of `CCOC(=O)N(CC(=O)O)c1cc(Cl)c(Oc2ccc(O)c(C(=O)c3ccc(C(C)(C)C)cc3)c2)c(Cl)c1` [Example 24, ({4-[3-(4-tert-Butyl-benzoyl)-4-hydroxy-phenoxy]-3,5-dichloro-phenyl}-ethoxycarbonyl-amino)-acetic acid], the “TR-α Fold Induction w.r.t T3(100 nm)” value on TR-α (Conc. 1 nM) is on record as 10.00. On TR-α (Conc. 10 nM), the “TR-α Fold Induction w.r.t T3(100 nm)” value was found to be 20.00. At TR-α (Conc. 100 nM), the “TR-α Fold Induction w.r.t T3(100 nm)” value was 50.00. Besides, the “TR-α Fold Induction w.r.t T3(100 nm)” value at TR-α (Conc. 1000 nM) is 70.00. In addition, at TR-β, the fold induction at 0.001 µM worked out at 20, the fold induction at 0.01 µM amounted to 40, the fold induction at 0.1 µM was determined as 100 and the fold induction at 1 µM turned out to be 75.

For the molecule `CCOC(=O)N(CC(=O)O)c1cc(Cl)c(Oc2ccc(O)c(C(=O)c3cccc(Cl)c3)c2)c(Cl)c1` [Example 25, ({3,5-Dichloro-4-[3-(3-chloro-benzoyl)-4-hydroxy-phenoxy]-phenyl}-ethoxycarbonyl-amino)-acetic acid], the “TR-α Fold Induction w.r.t T3(100 nm)” value on TR-α (Conc. 1 nM) is listed as 4.22; on TR-α (Conc. 10 nM), 8.55; on TR-α (Conc. 100 nM), 12.70; on TR-α (Conc. 1000 nM), 7.15. In addition, the fold induction at 0.001 µM at TR-β is 10.9. Moreover, at TR-β, the fold induction at 0.01 µM was determined as 26.3. The fold induction at 0.1 µM on TR-β was 70.1. Moreover, the fold induction at 1 µM on TR-β was 51.7.

Consider `CCC(C)c1cc(Oc2c(Cl)cc(N(CC(=O)O)CC(=O)O)cc2Cl)ccc1O` (stereo not shown) [Example 26, {[4-(3-sec-Butyl-4-hydroxy-phenoxy)-3,5-dichloro-phenyl]-carboxymethyl-amino}-acetic acid], for which the results for the EC50 on TR-α and at TR-β were 176 nM and 28.1 nM, respectively.

Turning to `O=C(O)CN(CC(=O)O)c1cc(Cl)c(Oc2ccc(O)c(C(=O)c3ccc(Cl)cc3)c2)c(Cl)c1` [Example 28, (Carboxymethyl-{3,5-dichloro-4-[3-(4-chloro-benzoyl)-4-hydroxy-phenoxy]-phenyl}-amino)-acetic acid], the “TR-α Fold Induction w.r.t T3(100 nm)” value at TR-α (Conc. 1 nM) is on record as 8.97; on TR-α (Conc. 10 nM), 14.71; at TR-α (Conc. 100 nM), 25.77; at TR-α (Conc. 1000 nM) it was 33.47. Moreover, at TR-β, the fold induction at 0.001 µM was 10.4. Also, the fold induction at 0.01 µM at TR-β turned out to be 20.9. The fold induction at 0.1 µM at TR-β was 45.4. Further, the fold induction at 1 µM on TR-β was found to be 46.1.
